Measurements taken from US11858925B2, “GAS41 inhibitors and methods of use thereof” (The Regents of the University of Michigan, priority 2020, dated 2024).
Where two headings read alike, the source gives them in different places.

What was measured:
[1] = biological target: T1, 15N-labeled GAS41 YEATS domain (Homo sapiens, UniProt O95619); experiment: 1H-15N HSQC NMR binding to 15N-labeled GAS41 YEATS domain; settings: 60 μM 15N-labeled GAS41 YEATS; 60 μM Compound 85 or 30 μM Compound 223
T1 construct: GAS41 YEATS domain were also compared by NMR
T1 sequence (O95619 15-158 limits assumed): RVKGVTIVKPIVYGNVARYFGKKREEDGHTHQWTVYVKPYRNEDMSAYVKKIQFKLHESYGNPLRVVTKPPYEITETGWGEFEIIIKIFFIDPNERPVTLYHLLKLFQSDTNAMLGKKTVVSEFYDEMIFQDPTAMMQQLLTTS
Method: FIGS. 2A-2C show data for activities of compounds disclosed herein. A) Results of a dimerization assay to determine bivalent inhibitor-induced dimerization of GAS41 YEATS domain, as described in Example 6. B) ^1H-^15N HSQC spectrum of 60 μM ^15N-labeled GAS41 YEATS domain (black) and in presence of 60 μM Compound 85 (red). C) ^1H-^15N HSQC spectrum of 60 μM ^15N-labeled GAS41 YEATS domain in presence of 30 μM Compound 223 (red).
(§1) The signal was further decreased at highest compound concentrations, and indicates saturation of YEATS domain via independent inhibitor molecules (Hook effect).

H1299 cells = experiment: Growth inhibition of H1299 cells; format: cell-based; settings: for GI50: Homo sapiens
Method: (§2) To investigate cellular activity of GAS41 inhibitors, H1299 cells were treated with monomeric Compound 88 and dimeric Compound 221 for 4 days. […] To determine whether growth inhibition is dependent on presence of GAS41 we developed A549 GAS41 knocked-out cells using the CRISPR/CAS9 system. We found GAS41-KO were viable but grew more slowly compare with parental A549 cells and had reduced growth by ˜70% at day 14 (FIG. 4B). […] Next, we evaluated the effect of Compound 221 on growth of two NSCLC cell lines H1299 and H1933 with GAS41 amplification. […] Such effect correlates closely with activity of Compound 221 in NanoBit assay (FIG. 3). To further validate on-target activity of Compound 221, we tested expression of GAS41 target genes in H1299 (Hsu 2018). […] Altogether, dimeric inhibitor Compound 221 reduces binding of GAS41 to acetylated H3.3 in cells and induces on-target growth inhibition in NSCLCs lines.

[2] = biological target: T2, His6-tagged full-length GAS41 (Homo sapiens, UniProt O95619); experiment: AlphaScreen competition assay with full-length GAS41 and biotin-H3K23crK27cr; format: binding
T2 construct: using His6-tagged full-length GAS41 and biotinylated-, di-crotonylated-H3 peptide
T2 sequence (O95619 whole entry): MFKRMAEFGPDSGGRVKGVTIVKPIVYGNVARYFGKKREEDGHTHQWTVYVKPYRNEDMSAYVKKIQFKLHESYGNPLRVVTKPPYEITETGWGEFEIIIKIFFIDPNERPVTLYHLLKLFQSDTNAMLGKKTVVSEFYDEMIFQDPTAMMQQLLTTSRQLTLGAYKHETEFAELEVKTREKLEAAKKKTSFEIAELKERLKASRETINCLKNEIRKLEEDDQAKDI
Method: An AlphaScreen competition assay was also developed using His6-tagged full-length GAS41 and biotinylated-, di-crotonylated-H3 peptide (biotin-H3K23crK27cr). For full-length protein competition experiments, 100 nM MOCR-his6-Gas41 protein was incubated with 100× competitor in 50 mM HEPES pH 7.5, 100 mM NaCl, 1 mM TCEP, 0.05% BSA, 0.01% Tween-20 for 1 hour at 1% DMSO in a 96-well ½-Area AlphaPlate. H3K23crK27cr-biotin was added to a final concentration of 25 nM and incubated for 1 hour. Nickel Chelate Acceptor AlphaScreen beads were added to a final concentration of 10 μg/mL and incubated for 1 hour. Streptavidin Donor AlphaScreen beads were added to a final concentration of 10 μg/mL and incubated for 2 hours. Alpha signal was measured on a Pherastar plate reader.

A549 GAS41-KO cells = experiment: Growth of A549 GAS41 knocked-out cells; format: cell-based
Method: as §2

A549 cells = experiment: Growth inhibition of A549 cells; format: cell-based; settings: Homo sapiens, 12 μM concentration
Method: as §2

H1933 cells = experiment: Growth inhibition of H1933 cells; format: cell-based; settings: 336 h, day 14
Method: as §2

[3] = biological target: T3, GAS41-WT interaction with H3.3 (Homo sapiens, UniProt O95619); experiment: NanoBiT assay, LgBiT-GAS41-WT and SmBiT-H3.3 in HEK293T cells; format: cell-based; settings: 24 h treatment, 293T cells, estimated, read-out: IC50, inhibition of the luminescence signal
T3 construct: expressed in transfected cells; host or cells: HEK293T
T3 sequence (O95619 whole entry): as above
Method: A NanoBiT assay (Promega Corporation, Madison, WI) was developed to detect inhibition of protein-protein interaction in HEK293T cells by compounds. GAS41-WT and GAS41-W93A mutant were cloned into pBiT1.1-C[TK/LgBiT] vector. SmBiT-H3.3 was purchased from Promega. HEK293T cells (4×10E5) were plated into 6-well plates (DMEM with 10% FBS) and incubated for 5 h. The LgBiT-GAS41 and SmBiT-H3.3 plasmids were co-transfected using FuGENE HD for 42 h. 5×10^4 cells were transferred into 96-well white plates (DMEM with 10% FBS and 1% Penicillin and Streptomycin) and treated with compounds for 24 h. After the Nano-Glo Live Cell Reagent was added to each well, the luminescence was measured immediately using PHERAstar FS instrument.
Introduction of a point mutation W93A in LgBit GAS41 abolishing histone recognition (Hsu 2018) largely diminished luminescence signal and validates the NanoBit assay.

GAS41 YEATS domain = biological target: T4, GAS41 YEATS domain (Homo sapiens, UniProt O95619); experiment: AlphaScreen dimerization assay with his6-Gas41(13-158) and avi-Gas41-YEATS; format: binding; settings: titration of his6-Gas41(13-158) and avi-Gas41-YEATS; Hook effect at highest concentrations
T4 construct: 500 nM his6-Gas41(13-158) and 250 nM avi-Gas41-YEATS were incubated; His-tagged and biotin-labeled Avi-tagged GAS41 YEATS domain constructs
T4 sequence (O95619 13-158 limits assumed): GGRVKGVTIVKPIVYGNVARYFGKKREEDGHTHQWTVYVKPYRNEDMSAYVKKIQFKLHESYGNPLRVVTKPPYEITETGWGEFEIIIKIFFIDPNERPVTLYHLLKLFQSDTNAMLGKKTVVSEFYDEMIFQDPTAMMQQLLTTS
T4 sequence (O95619 15-158 limits assumed): as the sequence (O95619 15-158 limits assumed) above
Method: An AlphaScreen assay based on His-tagged and biotin-labeled Avi-tagged GAS41 YEATS domain constructs was developed. For dimerization experiments, 500 nM his6-Gas41(13-158) and 250 nM avi-Gas41-YEATS were incubated in 50 mM HEPES pH 7.5, 100 mM NaCl, 1 mM TCEP, 0.05% BSA, 0.01% Tween-20 in a 96-well ½-Area AlphaPlate incubated for 30 minutes. Compounds 221 and 223 were added to a final concentration of 250 nM at 1% DMSO. Nickel Chelate Acceptor AlphaScreen beads were added to a final concentration of 10 μg/mL and incubated for 1 hour. Streptavidin Donor AlphaScreen beads were added to a final concentration of 10 μg/mL and incubated for 2 hours. For competition experiments with the dimeric complex, 500 nM his-Gas41(13-158) and 250 nM avi-Gas41-YEATS were incubated in assay buffer with 250 nM dimeric inhibitor for 30 minutes before the addition of monomeric competitor. AlphaScreen beads were added as in previous experiments. Alpha signal was measured on a Pherastar plate reader.
as §1

[4] = AlphaScreen assay, bin Less than 500 nM, read-out: GAS41 YEATS inhibitor IC50

| SMILES | IC50 [2, 4] [nM] | other results |
| --- | --- | --- |
| O=C(Nc1ccc(C(=O)N2CC(c3nccs3)C2)s1)[C@@H]1CCCN1 [Compound 85, (S)—N-(5-(3-(thiazol-2-yl)azetidine-1-carbonyl)thiophen-2-yl)pyrrolidine-2-carboxamide] | – | broadening of NMR signals (formation of a larger dimeric complex) [1]: not monomeric Compound 85 |
| O=C(Nc1ccc(C(=O)N2CC(c3nc4ccccc4s3)C2)s1)[C@@H]1CCCN1 [Compound 88] | – | dose dependent growth inhibition (H1299 cells; H1299 cells treated for 4 days): Only the dimer Compound 221 induces dose dependent growth inhibition |
| CC(C)(C)c1ccc(C(=O)N2CCCC2)s1 [Compound 134, (5-(tert-butyl)thiophen-2-yl)(pyrrolidin-1-yl)methanone] | – | IC50 ([2]; AlphaScreen, 100 nM MOCR-his6-Gas41, 25 nM H3K23crK27cr-biotin, read-out: IC50): 73000 nM |
| O=C(Nc1ccc(C(=O)N2CC(c3ncc(-c4cccc(COCc5cccc(-c6cnc(C7CN(C(=O)c8ccc(NC(=O)[C@@H]9CCCN9)s8)C7)s6)c5)c4)s3)C2)s1)C1CCCN1 (stereo partly shown) [Compound 210] | < 500 | – |
| O=C(Nc1ccc(C(=O)N2CC(c3ncc(-c4cccc(CNCc5cccc(-c6cnc(C7CN(C(=O)c8ccc(NC(=O)[C@@H]9CCCN9)s8)C7)s6)c5)c4)s3)C2)s1)C1CCCN1 (stereo partly shown) [Compound 211] | < 500 | – |
| CN(Cc1cccc(-c2cnc(C3CN(C(=O)c4ccc(NC(=O)C5CCCN5)s4)C3)s2)c1)Cc1cccc(-c2cnc(C3CN(C(=O)c4ccc(NC(=O)[C@@H]5CCCN5)s4)C3)s2)c1 (stereo partly shown) [Compound 212] | < 500 | – |
| CC(=O)NCCCCCCN(Cc1cccc(-c2cnc(C3CN(C(=O)c4ccc(NC(=O)C5CCCN5)s4)C3)s2)c1)Cc1cccc(-c2cnc(C3CN(C(=O)c4ccc(NC(=O)[C@@H]5CCCN5)s4)C3)s2)c1 (stereo partly shown) [Compound 213] | < 500 | – |
| CN(C(=O)C1C[C@@H](OCCCCCCO[C@H]2CN[C@H](C(=O)N(C)c3ccc(C(=O)N4CC(c5nccs5)C4)s3)C2)CN1)c1ccc(C(=O)N2CC(c3nccs3)C2)s1 (stereo partly shown) [Compound 217] | < 500 | – |
| O=C(Nc1ccc(C(=O)N2CC(c3nc4ccccc4s3)C2)s1)[C@@H]1C[C@@H](OCCCCCCO[C@H]2CN[C@H](C(=O)Nc3ccc(C(=O)N4CC(c5nc6ccccc6s5)C4)s3)C2)CN1 [Compound 218] | < 500 | – |
| O=C(Nc1ccc(C(=O)N2CC(c3nc4ccccc4s3)C2)s1)[C@@H]1C[C@@H](OCCCCCCCCO[C@H]2CN[C@H](C(=O)Nc3ccc(C(=O)N4CC(c5nc6ccccc6s5)C4)s3)C2)CN1 [Compound 219] | < 500 | – |
| O=C(Nc1ccc(C(=O)N2CC(c3nccs3)C2)s1)[C@@H]1C[C@@H](OCCCCCCCCO[C@H]2CN[C@H](C(=O)Nc3ccc(C(=O)N4CC(c5nccs5)C4)s3)C2)CN1 [Compound 220] | < 500 | – |
| O=C(Nc1ccc(C(=O)N2CC(c3nc4ccccc4s3)C2)s1)[C@@H]1C[C@@H](OCCCCO[C@H]2CN[C@H](C(=O)Nc3ccc(C(=O)N4CC(c5nc6ccccc6s5)C4)s3)C2)CN1 [Compound 221] | < 500 | effect on growth (A549 GAS41-KO cells): no effect; inhibition at 12 µM (A549 cells): ~40%; GI50 (H1933 cells): ~6000 nM; IC50 [3]: 6000 nM; GI50 (H1299 cells; NCI-H1299, 96 h, H1299 cells treated for 4 days): ~3000 nM; GI50 (H1299 cells; NCI-H1299, 336 h, H1299 cells, day 14): ~6000 nM |
| O=C(Nc1ccc(C(=O)N2CC(c3nccs3)C2)s1)[C@@H]1C[C@@H](OCc2ccc(CO[C@H]3CN[C@H](C(=O)Nc4ccc(C(=O)N5CC(c6nccs6)C5)s4)C3)cc2)CN1 [Compound 222] | < 500 | – |
| O=C(Nc1ccc(C(=O)N2CC(c3nccs3)C2)s1)[C@@H]1C[C@@H](OCCCCCCO[C@H]2CN[C@H](C(=O)Nc3ccc(C(=O)N4CC(c5nccs5)C4)s3)C2)CN1 [Compound 223, (2S,2′S,4R,4′R)-4,4′-(hexane-1,6-diylbis(oxy))bis(N-(5-(3-(thiazol-2-yl)azetidine-1-carbonyl)thiophen-2-yl)pyrrolidine-2-carboxamide)] | < 500 | luminescence signal reflecting formation of the dimeric complex (GAS41 YEATS domain): increase of luminescence signal; broadening of NMR signals (formation of a larger dimeric complex) [1]: induces very substantial broadening of signals |
